Data reported in patent US20240158446A1, “CYCLIC COMPOUND HAVING SELECTIVE INHIBITORY ACTION ON KRAS OVER HRAS AND NRAS” (CHUGAI SEIYAKU KABUSHIKI KAISHA, priority 2021, published 2024).
Like-named read-outs stand apart in the source and are kept apart here.

Legend:
[1] = target: GDP-bound KRAS wild-type protein (Homo sapiens, UniProt P01116); assay: Binding to KRAS by surface plasmon resonance (SPR), Single Cycle Kinetics; conditions: SPR, Single Cycle Kinetics, GDP-bound KRAS wild-type protein, read-out: KRAS KD
Chain of GDP-bound KRAS wild-type protein (P01116 whole entry): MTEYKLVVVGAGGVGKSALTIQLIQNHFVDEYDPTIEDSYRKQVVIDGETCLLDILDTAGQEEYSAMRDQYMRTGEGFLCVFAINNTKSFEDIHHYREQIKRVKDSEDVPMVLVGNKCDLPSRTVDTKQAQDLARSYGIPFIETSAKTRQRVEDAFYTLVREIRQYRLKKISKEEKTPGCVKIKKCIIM

[2] = target: GDP-bound NRAS wild-type protein (Homo sapiens, UniProt P01111); assay: Binding to NRAS by surface plasmon resonance (SPR), Single Cycle Kinetics; conditions: SPR; for NRAS/KRAS (ratio of KD value for NRAS to KD value for KRAS): GDP-bound NRAS wild-type protein vs GDP-bound KRAS wild-type protein, KD ratio class
Chain of GDP-bound NRAS wild-type protein (P01111 whole entry): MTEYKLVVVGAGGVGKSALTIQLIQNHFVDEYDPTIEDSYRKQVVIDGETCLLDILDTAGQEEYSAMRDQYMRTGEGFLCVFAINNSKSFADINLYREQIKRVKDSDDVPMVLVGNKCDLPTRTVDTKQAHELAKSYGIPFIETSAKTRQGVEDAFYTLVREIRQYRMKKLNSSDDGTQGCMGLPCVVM

[3] = target: GDP-bound HRAS wild-type protein (Homo sapiens, UniProt P01112); assay: Binding to HRAS by surface plasmon resonance (SPR), Single Cycle Kinetics; conditions: SPR; for HRAS/KRAS (ratio of KD value for HRAS to KD value for KRAS): GDP-bound HRAS wild-type protein vs GDP-bound KRAS wild-type protein, KD ratio class
Chain of GDP-bound HRAS wild-type protein (P01112 whole entry): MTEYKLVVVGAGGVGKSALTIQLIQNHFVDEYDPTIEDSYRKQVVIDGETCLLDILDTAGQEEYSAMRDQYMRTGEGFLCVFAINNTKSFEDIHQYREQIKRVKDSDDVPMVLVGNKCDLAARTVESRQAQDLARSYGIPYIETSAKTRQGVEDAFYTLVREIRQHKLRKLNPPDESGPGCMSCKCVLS

Row | Structure (SMILES) | Kd ([1]; 1:1 binding model) [nM] | Kd [1] [nM] | NRAS/KRAS (ratio of KD value for NRAS to KD value for KRAS) [2] | HRAS/KRAS (ratio of KD value for HRAS to KD value for KRAS) [3] | NRAS/KRAS (KD ratio) ([2]; ratio of KD for GDP-bound NRAS wild-type protein to KD for KRAS) | HRAS/KRAS (KD ratio) ([3]; ratio of KD for GDP-bound HRAS wild-type protein to KD for KRAS)
1 | CCO[C@@H]1C[C@H]2C(=O)NC3(CCC3)C(=O)N(C)[C@@H](C3CCCC3)C(=O)N(C)[C@H](C3CCCCC3)CC(=O)N(C)[C@@H](COC)C(=O)N[C@@H]([C@@H](C)CC)C(=O)N(C)CC(=O)N(C)[C@H]3C/C=C\CCN(C3=O)[C@@H](Cc3ccc(C(F)(F)F)cc3)C(=O)N(C)CC(=O)N[C@@H](CCc3cc(F)c(C(F)(F)F)c(F)c3)C(=O)N2C1 [PP1584] | 0.56 |  | B (a compound having 3 or more and less than 10 is denoted as B) | B (a compound having 3 or more and less than 10 is denoted as B) |  | 
2 | CCO[C@@H]1C[C@H]2C(=O)NC3(CCC3)C(=O)N(C)[C@@H](C(CC)CC)C(=O)N(C)C(C(C)C)CC(=O)N(C)[C@@H](CC)C(=O)N[C@@H]([C@@H](C)CC)C(=O)N(C)CC(=O)N(C)[C@H]3C/C=C\CCN(C3=O)[C@@H](Cc3ccc(C(F)(F)F)cc3)C(=O)N(C)CC(=O)N[C@@H](CCc3cc(F)c(C(F)(F)F)c(F)c3)C(=O)N2C1 (stereo partly drawn) [PP1589] | 1.8 |  | A (a compound having 10 or more and less than 20 is denoted as A) | A (a compound having 10 or more and less than 20 is denoted as A) |  | 
3 | CCO[C@@H]1C[C@H]2C(=O)NC3(CC(F)(F)C3)C(=O)N(C)[C@@H](C(CC)CC)C(=O)N(C)C(C(C)C)CC(=O)N(C)[C@@H](CC)C(=O)N[C@@H]([C@@H](C)CC)C(=O)N(C)CC(=O)N(C)[C@H]3C/C=C\CCN(C3=O)[C@@H](Cc3ccc(C(F)(F)F)cc3)C(=O)N(C)CC(=O)N[C@@H](CCc3cc(F)c(C(F)(F)F)c(F)c3)C(=O)N2C1 (stereo partly drawn) [PP1591] | 4.6 |  | A (a compound having 10 or more and less than 20 is denoted as A) | A (a compound having 10 or more and less than 20 is denoted as A) |  | 
4 | CCO[C@@H]1C[C@H]2C(=O)NC3(CC(C)(C)C3)C(=O)N(C)[C@@H](C(CC)CC)C(=O)N(C)C(C(C)C)CC(=O)N(C)[C@@H](CC3CC3)C(=O)N[C@@H]([C@@H](C)CC)C(=O)N(C)CC(=O)N(C)[C@H]3C/C=C\CCN(C3=O)[C@@H](Cc3ccc(C(F)(F)F)cc3)C(=O)N(C)CC(=O)N[C@@H](CCc3cc(F)c(C(F)(F)F)c(F)c3)C(=O)N2C1 (stereo partly drawn) [PP1593] | 4.3 |  | A (a compound having 10 or more and less than 20 is denoted as A) | A (a compound having 10 or more and less than 20 is denoted as A) |  | 
5 | CCO[C@@H]1C[C@H]2C(=O)NC3(CC(F)(F)C3)C(=O)N(C)[C@@H](C3CCCC3)C(=O)N(C)C(C(C)C)CC(=O)N(C)[C@@H](CC3CC3)C(=O)N[C@@H]([C@@H](C)CC)C(=O)N(C)CC(=O)N(C)[C@H]3C/C=C\CCN(C3=O)[C@@H](Cc3ccc(C(F)(F)F)cc3)C(=O)N(C)CC(=O)N[C@@H](CCc3cc(F)c(C(F)(F)F)c(F)c3)C(=O)N2C1 (stereo partly drawn) [PP1598] | 0.76 |  | A (a compound having 10 or more and less than 20 is denoted as A) | A (a compound having 10 or more and less than 20 is denoted as A) |  | 
6 | CCO[C@@H]1C[C@H]2C(=O)NC3(CCC3)C(=O)N(C)[C@@H](C3CCCC3)C(=O)N(C)[C@H](C(C)C)CC(=O)N(C)[C@@H](CC)C(=O)N[C@@H]([C@@H](C)CC)C(=O)N(C)CC(=O)N(C)[C@H]3C/C=C\CCN(C3=O)[C@@H](CC3CCCCC3)C(=O)N(C)CC(=O)N[C@@H](CCc3cc(F)c(C(F)(F)F)c(F)c3)C(=O)N2C1 [PP1601] | 2.1 |  | B (a compound having 3 or more and less than 10 is denoted as B) | A (a compound having 10 or more and less than 20 is denoted as A) |  | 
7 | CCO[C@@H]1C[C@H]2C(=O)NC3(CC(C)(C)C3)C(=O)N(C)[C@@H](C(CC)CC)C(=O)N3CCC[C@@H]3CC(=O)N(C)[C@@H](CC)C(=O)N[C@@H]([C@@H](C)CC)C(=O)N(C)CC(=O)N(C)[C@H]3C/C=C\CCN(C3=O)[C@@H](Cc3ccc(C(F)(F)F)cc3)C(=O)N(C)CC(=O)N[C@@H](CCc3cc(F)c(C(F)(F)F)c(F)c3)C(=O)N2C1 [PP1605] | 0.79 |  | A (a compound having 10 or more and less than 20 is denoted as A) | A (a compound having 10 or more and less than 20 is denoted as A) |  | 

Now from value to compound, other results behind:

Row | Kd ([1]; 1:1 binding model) [nM] | Kd [1] [nM] | Structure (SMILES) | NRAS/KRAS (ratio of KD value for NRAS to KD value for KRAS) [2] | HRAS/KRAS (ratio of KD value for HRAS to KD value for KRAS) [3] | NRAS/KRAS (KD ratio) ([2]; ratio of KD for GDP-bound NRAS wild-type protein to KD for KRAS) | HRAS/KRAS (KD ratio) ([3]; ratio of KD for GDP-bound HRAS wild-type protein to KD for KRAS)
8 | 0.76 |  | CCO[C@@H]1C[C@H]2C(=O)NC3(CC(F)(F)C3)C(=O)N(C)[C@@H](C3CCCC3)C(=O)N(C)C(C3CCCCC3)CC(=O)N(C)[C@@H](COC)C(=O)N[C@@H]([C@@H](C)CC)C(=O)N(C)CC(=O)N(C)[C@H]3C/C=C\CCN(C3=O)[C@@H](Cc3ccc(C(F)(F)F)cc3)C(=O)N(C)CC(=O)N[C@@H](CCc3cc(F)c(C(F)(F)F)c(F)c3)C(=O)N2C1 (stereo partly drawn) [PP1586] | A (a compound having 10 or more and less than 20 is denoted as A) | A (a compound having 10 or more and less than 20 is denoted as A) |  | 
9 | 0.29 |  | CCO[C@@H]1C[C@H]2C(=O)NC3(CCC3)C(=O)N(C)[C@@H](C3CCCC3)C(=O)N(C)C(C(C)C)CC(=O)N(C)[C@@H](CC)C(=O)N[C@@H]([C@@H](C)CC)C(=O)N(C)CC(=O)N(C)[C@H]3C/C=C\CCN(C3=O)[C@@H](Cc3ccc(C(F)(F)F)cc3)C(=O)N(C)CC(=O)N[C@@H](CCc3cc(F)c(C(F)(F)F)c(F)c3)C(=O)N2C1 (stereo partly drawn) [PP1590] | A (a compound having 10 or more and less than 20 is denoted as A) | B (a compound having 3 or more and less than 10 is denoted as B) |  | 
10 | 2.3 |  | CCO[C@@H]1C[C@H]2C(=O)NC3(CCC3)C(=O)N(C)[C@@H](C(CC)CC)C(=O)N(C)C(C(C)C)CC(=O)N(C)[C@@H](CC3CC3)C(=O)N[C@@H]([C@@H](C)CC)C(=O)N(C)CC(=O)N(C)[C@H]3C/C=C\CCN(C3=O)[C@@H](Cc3ccc(C(F)(F)F)cc3)C(=O)N(C)CC(=O)N[C@@H](CCc3cc(F)c(C(F)(F)F)c(F)c3)C(=O)N2C1 (stereo partly drawn) [PP1595] | A (a compound having 10 or more and less than 20 is denoted as A) | A (a compound having 10 or more and less than 20 is denoted as A) |  | 
11 | 5.3 |  | CCO[C@@H]1C[C@H]2C(=O)NC3(CC(C)(C)C3)C(=O)N(C)[C@@H](C3CCCC3)C(=O)N(C)[C@H](C(C)C)CC(=O)N(C)[C@@H](CC)C(=O)N[C@@H]([C@@H](C)CC)C(=O)N(C)CC(=O)N(C)[C@H]3C/C=C\CCN(C3=O)[C@@H](CC3CCCCC3)C(=O)N(C)CC(=O)N[C@@H](CCc3cc(F)c(C(F)(F)F)c(F)c3)C(=O)N2C1 [PP1603] | B (a compound having 3 or more and less than 10 is denoted as B) | B (a compound having 3 or more and less than 10 is denoted as B) |  | 
12 | 0.37 |  | CCO[C@@H]1C[C@H]2C(=O)NC3(CC(C)(C)C3)C(=O)N(C)[C@@H](C3CCCC3)C(=O)N3CCC[C@@H]3CC(=O)N(C)[C@@H](CC)C(=O)N[C@@H]([C@@H](C)CC)C(=O)N(C)CC(=O)N(C)[C@H]3C/C=C\CCN(C3=O)[C@@H](Cc3ccc(C(F)(F)F)cc3)C(=O)N(C)CC(=O)N[C@@H](CCc3cc(F)c(C(F)(F)F)c(F)c3)C(=O)N2C1 [PP1606] | B (a compound having 3 or more and less than 10 is denoted as B) | B (a compound having 3 or more and less than 10 is denoted as B) |  | 
13 |  | 0.057 | CCO[C@@H]1C[C@H]2C(=O)NC3(CC(C)(C)C3)C(=O)N(C)[C@@H](C3CCCC3)C(=O)N(C)[C@H](C(=O)N(C)C)CC(=O)N(C)[C@@H](CC(C)C)C(=O)N[C@@H]([C@@H](C)CC)C(=O)N(C)CC(=O)N(C)[C@H]3C/C=C\CCN(C3=O)[C@@H](Cc3ccc(C(F)(F)F)cc3)C(=O)N(C)CC(=O)N[C@@H](CCc3cc(F)c(C(F)(F)F)c(F)c3)C(=O)N2C1 [PP1650, (2S,8S,12R,14S,20S,23S,27S,30S,36S,38Z)-20-cyclopentyl-8-[2-[3,5-difluoro-4-(trifluoromethyl)phenyl]ethyl]-12-ethoxy-27-isobutyl-N,N,3′,3′,4,19,22,26,32,35-decamethyl-30-[(1S)-1-methylpropyl]-3,6,9,15,18,21,25,28,31,34,42-undecaoxo-2-[[4-(trifluoromethyl)phenyl]methyl]spiro[1,4,7,10,16,19,22,26,29,32,35-undecazatricyclo[34.5.1.0^10,14]dotetracont-38-ene-17,1′-cyclobutane]-23-carboxamide] |  |  | A (a compound having 10 or more and less than 20 is denoted as A) | A (a compound having 10 or more and less than 20 is denoted as A)
